Test results from ChEMBL document CHEMBL1151040, “Synthetic inhibitors of interleukin-6 I: 2,3,7,8-tetrahydro-4-aryl-1H-cyclopent [e] imidazo [1,2-a]- pyridin-5(6H)-one and related compounds” (Bioorg Med Chem Lett, 1995).

Legend:
WEHI265.1 [1] = experiment: In vitro inhibitory activity against lipopolysaccharide (LPS)-induced interleukin 6 production in murine myelomonocytic leukemia (WEHI-265.1) cells at a concentration of 10 uM; format: functional; conditions: Mus musculus
Mus musculus [2] = experiment: Effective dose of compound against serum interleukin 6 (IL-6) in C3H mice when administered intraperitoneally; format: functional; conditions: ip
WEHI265.1 [3] = experiment: In vitro inhibitory activity against lipopolysaccharide (LPS)-induced interleukin 6 (IL-6) production in murine myelomonocytic leukemia (WEHI-265.1) cells; format: functional, cell-based; conditions: Mus musculus
Mus musculus [4] = experiment: Inhibitory activity against LPS-induced interleukin 6 (IL-6) in the serum of C3H mice, at a dose of 25 mpk by oral administration; format: functional
Mus musculus [5] = experiment: Inhibitory activity against LPS-induced interleukin 6 (IL-6) in the serum of C3H mice, at a dose of 25 mpk by intraperitoneal administration; format: functional; conditions: ip
Mus musculus [6] = experiment: Effective dose of compound against serum interleukin 6 (IL-6) in C3H mice when administered orally; format: functional; conditions: po
WEHI265.1 [7] = experiment: In vitro inhibitory activity against lipopolysaccharide (LPS) -induced IL-6 production in murine myelomonocytic uM; format: functional, Mus musculus

Row | IC50 (WEHI265.1 [3]) | Compound | inhibition at 10 µM (WEHI265.1 [1]) | also measured
1 |  | OC1=C(c2ccccc2O)C2=NCCN2C2=C1CCC2 | 55% | 
2 |  | O=c1c2c(n3c(c1-c1ccccc1)N(Cc1ccccc1)CC3)CCC2 | 43% | 
3 |  | OC1=C(Sc2ccccc2)C2=NCCN2C2=C1CCC2 | 63% | 
4 |  | OC1=C(c2ccccn2)C2=NCCN2C2=C1CCC2 | 55% | 
5 |  | O=c1c2c(n3c(c1-c1ccccc1)OCC3)CCC2 | 20% | 
6 |  | OC1=C(c2ccccc2C(F)(F)F)C2=NCCN2C2=C1CCC2 | 90% | 
7 | 2 µM | Nc1ccccc1-c1c2n(c3c(c1=O)CCC3)CCN2 | 82% | ED50 (Mus musculus [2]): 4 mg/kg; inhibition in vivo at 25 mg/kg (Mus musculus [4]): 72%
8 |  | OC1=CC2=NCCN2C2=C1CCC2 | 38% | 
9 | 0.2 µM | OC1=C(c2ccccc2)C2=NCCN2C2=C1CCC2 |  | ED50 (Mus musculus [2]): 0.35 mg/kg; inhibition in vivo at 25 mg/kg (Mus musculus [5]): 77%; ED50 (Mus musculus [6]): 32 mg/kg; inhibition in vivo at 25 mg/kg (Mus musculus [4]): 39%; Inhibition (WEHI265.1 [7]): 74%
10 |  | CCOC(=O)C1=C(O)C2=C(CCC2)N2CCN=C12 | 58% | 
11 | 6 µM | O=[N+]([O-])c1ccccc1C1=C(O)C2=C(CCC2)N2CCN=C12 | 73% | ED50 (Mus musculus [2]): 8 mg/kg; inhibition in vivo at 25 mg/kg (Mus musculus [4]): 78%
12 |  | OC1=C(c2cccnc2)C2=NCCN2C2=C1CCC2 | 0% | 
13 | 4 µM | O=c1c2c(n3c(c1-c1ccccc1Cl)NCC3)CCC2 | 90% | ED50 (Mus musculus [2]): 0.5 mg/kg
14 |  | O=C(O)c1cccc(C2=C(O)C3=C(CCC3)N3CCN=C23)c1 | 0% | 
15 | 0.6 µM | CCOC(=O)c1cccc(C2=C(O)C3=C(CCC3)N3CCN=C23)c1 | 83% | 
16 | 5 µM | CC(=O)Nc1ccccc1-c1c2n(c3c(c1=O)CCC3)CCN2 | 74% | 
17 |  | COc1ccccc1-c1c2n(c3c(c1=O)CCC3)CCN2 | 82% | ED50 (Mus musculus [2]): 0.3 mg/kg
18 |  | O=c1c2c(n3c(c1-c1ccccc1)SCC3)CCC2 | 52% | 
19 |  | CSC1=C(O)C2=C(CCC2)N2CCN=C12 | 77% | 
20 |  | CN1CCn2c3c(c(=O)c(-c4ccccc4)c21)CCC3 | 27% | 
